Experimental data: patent US20240166591A1, “Pharmaceutical Products Based on Cannabinoid Acid Esters” (priority 2021, published 2024)

What was measured:
[1] = system: SK-BR-3 cancer cell line (human breast cancer cell line); assay: MTT cytotoxicity assay, SK-BR-3 cancer cell line; format: cell-based; details: for EC50: cancer cell line SKBR3
From the text: (§1) The cytotoxic activity of CBDA methyl esters, CBCA CBGA and THCA was studied by the in vitro MTT colorimetric process (Mosmann, T. et al. J. Immunol. Methods. 1983; 65: 55-63). This method, which is widely used to measure cellular metabolic activity as an indicator of cell viability, division and cytotoxicity, is based on the reduction of a yellow salt of tetrazole ((3-(4,5-dimethylthiazol-2-yl)-2). 5-diphenyltetrazolium bromide or MTT) in violet formazan crystals from metabolically active cells.
(§2) Briefly for this cytotoxicity test, the SK-BR-3 cancer cell line (human breast cancer cell line), the MCF-7 cancer cell line (human breast cancer cell line), and the A2058 cancer cell line […]) and the cancer line SKMEL28 (melanoma line). All cell lines were tested at 20% v/v O2, in the presence of 10% FBS after 48 h or 72 h of incubation.

SKMEL28 (melanoma line) = assay: MTT cytotoxicity assay, SKMEL28 cancer line; format: cell-based
From the text: as §1, §2

[2] = system: MCF-7 cancer cell line (human breast cancer cell line); assay: MTT cytotoxicity assay, MCF-7 cancer cell line; format: cell-based; details: MCF7 cell line
From the text: as §1, §2

[3] = system: A2058 cancer cell line (melanoma); assay: MTT cytotoxicity assay, A2058 cancer cell line; format: cell-based
From the text: as §1, §2

cyclooxygenase-2 = details: MDA-MB-231; cited from earlier work
[4] = system: breast cancer cells MDA-MB-231; details: cited from earlier work
normal MCF10A cells = assay: Cytotoxic activity in normal MCF10A cells compared to SK-BR-3; format: cell-based; details: FIG. 3
From the text: FIG. 3. Comparison of the cytotoxic activity of CBDA methyl ester in SK-BR-3 cancer cells compared to the cytotoxic activity in normal MCF10A cells.
as §1

[5] = MTT, incubation time not stated (48 h or 72 h)

CCCCCc1cc(O)c(C/C=C(\C)CCC=C(C)C)c(O)c1 [CBG, cannabigerol, reference compound]
EC50 ([1]; Homo sapiens, SK-BR-3, 72 h): 38.8 µM

CCCCCc1cc(O)c(C/C=C(\C)CCC=C(C)C)c(O)c1C(=O)OC [CBGA-Me, CBGA methyl ester]
EC50 (SKMEL28 (melanoma line)): 17 µM | EC50 [2]: 18 µM | EC50 [3]: 17 µM | relative cytotoxic activity among the esters ([1]; SKBR3, 48 h and 72 h (FIGS. 1 and 2)): greatest activity | activity compared with the corresponding decarboxylated product ([1]; SKBR3, 72 h for CBGA methyl ester vs CBG): almost twice as active as CBG | EC50 [1, 5]: 20.2 µM

C=C(C)[C@@H]1CCC(C)=C[C@H]1c1c(O)cc(CCCCC)c(C(=O)O)c1O [CBDA, Cannabidiolic acid]
expression of cyclooxygenase-2 (cyclooxygenase-2): enhance the expression of cyclooxygenase-2 | cell migration [4]: inhibit cell migration

CCCCCc1cc2c(c(O)c1C(=O)OC)C=CC(C)(CCC=C(C)C)O2 (stereo not shown) [CBCA-Me, CBCA methyl ester]
EC50 [1, 5]: 35 µM

C=C(C)[C@@H]1CCC(C)=C[C@H]1c1c(O)cc(CCCCC)c(C(=O)OC)c1O [CBDA-Me, CBDA methyl ester]
effect on SK-BR-3 cancer cells compared with normal MCF10A cells (normal MCF10A cells): much stronger effect on SK-BR-3 cancer cells than normal MCF10A cells | EC50 [1, 5]: 30.6 µM

CCCCCc1cc2c(c(O)c1C(=O)OC)C1C=C(C)CCC1C(C)(C)O2 (stereo not shown) [THCA-Me, THCA methyl ester]
EC50 [1, 5]: 36 µM
